Here are results for two compounds from patent publication US9644005B2, “Didemnin biosynthetic gene cluster in Tistrella mobilis” (King Abdullah University of Science and Technology, priority 2011, dated 2017).

In series [1] the test system is HCT-116 human colon carcinoma cell. Nature of the series: Cytotoxic activity using HCT-116 human colon carcinoma cell. It counts as cell-based. The settings on record: compounds purified by semi-preparative HPLC; cell line not restated.
For series [2] the following is noted: phase II human clinical trials; cited from earlier work.
In series [3] the test system is herpes simplex virus type 1. The settings on record: DNA and RNA viruses such as herpes simplex virus type 1; cited from earlier work.
The subject of another series is murine leukemia cells. The settings on record: cited from earlier work.

As to nordidemnin B, the “concentration at which strong cytotoxic activity was shown” value in series [1] is 0.074 ng/mL.
Consider `CC[C@H](C)[C@H]1NC(=O)[C@@H](NC(=O)[C@@H](CC(C)C)N(C)C(=O)[C@@H]2CCCN2C(=O)C(C)O)[C@@H](C)OC(=O)[C@H](Cc2ccc(OC)cc2)N(C)C(=O)[C@@H]2CCCN2C(=O)[C@H](CC(C)C)NC(=O)[C@@H](C)C(=O)[C@H](C(C)C)OC(=O)C[C@@H]1O` (some centres unmarked) [didemnin B], for which the “concentration at which strong cytotoxic activity was shown” value in series [1] was found to be 0.074 ng/mL. Also, the “toxicity in human subjects” value in series [2] is reported as “high toxicity”. Moreover, in series [3], the antiviral activity entry is recorded as “strong antiviral agent”. Further, in the series with murine leukemia cells, the “activity against murine leukemia cells” value is on record as “strong activity”.
